For experiment [1], the system named is male ICR mouse. Nature of the experiment: Formalin test - late phase in mouse. The class given is in vivo. The following applies: po, unit inferred. The protocol: 3. Formalin Test—Late Phase in Mouse
A formalin test is another model for measuring an analgesic effect of drugs. […] These pain behaviors have a biphasic pattern, and therefore they are divided into an early-phase behavior within […] after the formalin administration; and a late-phase behavior up to 10 to 60 minutes. The medicinal effect observed in the formalin test-late phase means an analgesic effect of the test material in the inflammatory pain model, and also becomes a measure that may predict the medicinal effects in the neuropathic pain model (Vissers K et. al, 2003). A test material was orally administered to a male ICR mouse weighing 30 to 35 g. After 1 hour of the oral administration, 20 μl of a 2.5% formalin solution was subcutaneously injected into the planta surface of a mouse's hindlimb to induce pain. […] The analgesic effect of the test material is represented by the ‘suppression ratio of pain response’ {[(Pain response time of Vehicle-administered group−Pain response time of Test material-administered group)/(Pain response time of Vehicle-administered group)]×100%}, or ‘50% of Effective amount (ED50; an amount of a test material that is required to suppress 50% of pain behaviors) of Test material’. The ED50 (median effective dose) was determined by calculating the suppression ratio of pain response in at least three doses of test materials and subjecting to the linear regression.

For the next experiment, the target named is 5-HT2A receptor (Rattus norvegicus (Rat), UniProt P14842). Nature of the experiment: Binding to 5-HT2A receptor ([3H]-Ketanserin, rat cortical membranes). Set-up: species or system Sprague-Dawley (SD) rats. Particulars: for IC50: 0.5 nM [3H]-Ketanserin, read-out: 5-HT2A: IC50 (Concentration required to be 50% suppressed); for inhibition at 1 µM: 1 h, read-out: 5-HT2A: Suppression. The protocol: Binding to 5-HT2A Receptor
Sequence of 5-HT2A receptor (P14842 whole entry): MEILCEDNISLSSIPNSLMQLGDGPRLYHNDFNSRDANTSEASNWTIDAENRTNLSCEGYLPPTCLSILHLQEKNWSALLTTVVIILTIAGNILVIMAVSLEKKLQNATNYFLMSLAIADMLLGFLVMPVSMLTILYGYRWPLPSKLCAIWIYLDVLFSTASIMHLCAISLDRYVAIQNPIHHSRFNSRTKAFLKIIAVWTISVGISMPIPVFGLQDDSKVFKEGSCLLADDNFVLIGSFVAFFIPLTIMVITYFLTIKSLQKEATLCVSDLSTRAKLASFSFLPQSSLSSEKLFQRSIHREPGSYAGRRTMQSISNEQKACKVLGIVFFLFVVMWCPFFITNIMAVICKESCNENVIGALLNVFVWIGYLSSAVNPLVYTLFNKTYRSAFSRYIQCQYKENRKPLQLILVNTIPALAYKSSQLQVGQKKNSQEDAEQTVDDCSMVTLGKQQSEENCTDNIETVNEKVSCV
6-week-old Sprague-Dawley (SD) rats were anesthetized in an ether container for 5 minutes, brains were separated from rats, and cortical regions were then separated from the brains of the rats. The cortical regions of the rats were put into a Tris-HCl buffer solution (50 mM, pH 7.7) and homogenized, and the homogenate was centrifuged twice at 4° C. at a rotary speed of 50,000 g to obtain a precipitate (membrane protein). The precipitate was put into a buffer solution, and homogenized, which was used later as a protein source. 0.5 nM [3H]-Ketanserin was used as a radioactive isotope, and 10 uM serotonin was used to remove non-specific bindings. 25 ul of the compound, 100 ul of an aqueous radioactive isotope solution, and 100 ul of the protein source were put together, and kept at 25° C. for 1 hour. The resulting mixture was filtered with a membrane filter in a 96-well harvester when the 96-well plate reaction was completed. The competitivity of the compound to [3H]-Ketanserin was determined by taking the membrane filter and measuring the radioactivity in a scintillation counter, and an IC50 value was determined by measuring the increasing concentration of the compound. The specific reaction of the compound accounted for 90% or more. The general experiments were carried out according to the method by Leysen et al. (1982, Eur. J. Pharmacol).

For a further experiment, the target named is 5-HT1A receptor (Rattus norvegicus (Rat), UniProt P19327). Nature of the experiment: Binding to 5-HT1A receptor ([3H]-8-OH-DPAT, rat cortical membranes). Set-up: species or system Sprague-Dawley (SD) rats. Particulars: for IC50: 2 nM [3H]-8-OH-DPAT, read-out: 5-HT1A: IC50 (Concentration required to be 50% suppressed); for inhibition at 1 µM: 1 h, read-out: 5-HT1A: Suppression. As for the experimental part: Binding to 5-HT1A Receptor
Sequence of 5-HT1A receptor (P19327 whole entry): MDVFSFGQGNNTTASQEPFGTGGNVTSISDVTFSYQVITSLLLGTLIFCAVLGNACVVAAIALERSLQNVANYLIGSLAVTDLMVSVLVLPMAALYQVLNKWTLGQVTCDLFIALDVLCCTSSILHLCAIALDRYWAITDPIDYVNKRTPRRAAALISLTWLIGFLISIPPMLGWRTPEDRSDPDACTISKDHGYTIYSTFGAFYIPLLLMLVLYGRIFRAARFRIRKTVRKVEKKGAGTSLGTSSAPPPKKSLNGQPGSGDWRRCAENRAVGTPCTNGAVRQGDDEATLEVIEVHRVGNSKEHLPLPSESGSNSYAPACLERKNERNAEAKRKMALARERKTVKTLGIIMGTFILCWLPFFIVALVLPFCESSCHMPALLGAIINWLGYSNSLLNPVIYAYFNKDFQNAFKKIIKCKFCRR
6-week-old Sprague-Dawley (SD) rats were anesthetized in an ether container for 5 minutes, brains were separated from rats, and cortical regions were then separated from the brains of the rats. The cortical regions of the rats were put into a Tris-HCl buffer solution (50 mM, pH 7.4) and homogenized, and the homogenate was centrifuged twice at 4? at a rotary speed of 50,000 g to obtain a precipitate (membrane protein). The precipitate was put into a buffer solution, and homogenized, which was used later as a protein source. 2 nM [3H]-8-OH-DPAT was used as a radioactive isotope, and 10 uM serotonin was used to remove non-specific bindings. 25 ul of the compound, 100 ul of an aqueous radioactive isotope solution, and 100 ul of the protein source were put together, and kept at 25° C. for 1 hour. The resulting mixture was filtered with a membrane filter in a 96-well harvester when the 96-well plate reaction was completed. The competitivity of the compound to [3H]-8-OH-DPAT was determined by taking the membrane filter and measuring the radioactivity of the membrane filter in a scintillation counter, and an IC50 value was determined by measuring the increasing concentration of the compound. The specific reaction of the compound accounted for 90% or more. The general experiments were carried out according to the method by Middlemiss et al. (1984, Eur. J. Pharmacol.).

The test system of experiment [2] is male ICR mouse. Nature of the experiment: Acetic acid-induced writhing test in mouse. It counts as in vivo. The following applies: Mus musculus; for ED50: unit not given (method doses in mg/kg), read-out: AA Writhing: ED50. In short, it runs like this: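 Male ICR mice (30 to 35 g) dosed orally at 10 mg/kg, then given 0.8% acetic acid i.p. 1 h later. Writhes counted for 10 min and expressed as % suppression against vehicle. ED50 derived by linear regression over at least three doses.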

The subject of experiment [3] is male ICR mouse. Nature of the experiment: Formalin test - late phase in mouse. The class given is in vivo. The following applies: ip, unit inferred.

Consider `NC(=O)OC(CCN1CCN(c2ccccc2)CC1)c1ccccc1` (centres unmarked) [Example 1, Carbamic acid 1-phenyl-3-(4-phenyl-piperazin-1-yl)-propyl ester], for which the ED50 in the experiment with male ICR mouse [1] stood at 8.43 mg/kg; in the experiment on male ICR mouse [2] (po) it was 6.31 mg/kg. In addition, the IC50 at 5-HT2A receptor came out at 0.139 µM; at 5-HT1A receptor, 0.434 µM.
Consider `NC(=O)OC(CCN1CCN(c2ccccc2)CC1)c1ccc(Cl)cc1` (centres unmarked) [Example 2, Carbamic acid 1-(4-chloro-phenyl)-3-(4-phenyl-piperazin-1-yl)-propyl ester], for which the figures for the ED50 in the experiment on male ICR mouse [1] and with male ICR mouse [2] (po) were 2.2 mg/kg and 2.14 mg/kg, respectively. Further, the inhibition at 1 µM stood at 84.6% on 5-HT2A receptor and 64.6% at 5-HT1A receptor.
For the compound `NC(=O)OC(CCN1CCN(c2ccccc2)CC1)c1ccc(F)cc1` (centres unmarked) [Example 6, Carbamic acid 1-(4-fluoro-phenyl)-3-(4-phenyl-piperazin-1-yl)-propyl ester], the figures for the ED50 with male ICR mouse [1] and in the experiment with male ICR mouse [2] (po) were 4.45 mg/kg and 2.79 mg/kg, respectively. Also, the inhibition at 1 µM amounted to 84.7% at 5-HT2A receptor and 65.5% at 5-HT1A receptor.
In the experiment on male ICR mouse [1], `NC(=O)OC(CCN1CCN(c2ccccc2)CC1)c1ccc([N+](=O)[O-])cc1` (centres unmarked) [Example 9, Carbamic acid 1-(4-nitro-phenyl)-3-(4-phenyl-piperazin-1-yl)-propyl ester] gave an ED50 of 2.39 mg/kg. In addition, the figures for the inhibition at 1 µM at 5-HT2A receptor and at 5-HT1A receptor were 88% and 81.4%, respectively. In addition, the inhibition in vivo at 10 mg/kg in the experiment on male ICR mouse [2] (po, 1 h, at 10 po (method: 10 mg/kg oral, 1 hour before acetic acid), read-out: AA Writhing: Suppression ratio of Pain response) amounted to 91%.
For `NC(=O)OC(CCN1CCN(c2ccc([N+](=O)[O-])cc2)CC1)c1ccccc1` (centres unmarked) [Example 16, Carbamic acid 1-phenyl-3-[4-(4-nitro-phenyl)-piperazin-1-yl]-propyl ester], the ED50 in the experiment on male ICR mouse [1] was 11.6 mg/kg; in the experiment on male ICR mouse [2] (ip), 2.92 mg/kg. In addition, the IC50 worked out at 2.05 µM on 5-HT2A receptor and 6.57 µM on 5-HT1A receptor.
With `COc1ccc(N2CCN(CCC(OC(N)=O)c3ccccc3)CC2)cc1` (centres unmarked) [Example 20, Carbamic acid 3-[4-(4-methoxy-phenyl)-piperazin-1-yl]-1-phenyl-propyl ester], the ED50 in the experiment on male ICR mouse [1] is 5.77 mg/kg; in the experiment with male ICR mouse [2] (po), 3.12 mg/kg. For the same compound, the IC50 on 5-HT2A receptor worked out at 5.85 µM; at 5-HT1A receptor it was 19.8 µM.
For the compound `Cc1ccccc1N1CCN(CCC(OC(N)=O)c2ccccc2)CC1` (centres unmarked) [Example 37, Carbamic acid 1-phenyl-3-(4-o-tolylpiperazin-1-yl)-propyl ester], the ED50 in the experiment with male ICR mouse [1] came out at 42.4 mg/kg; with male ICR mouse [2] (ip) it was 1.96 mg/kg.
On to `NC(=O)OC(CCN1CCN(c2ccccc2F)CC1)c1ccccc1` (centres unmarked) [Example 41, Carbamic acid 3-[4-(2-fluoro-phenyl)-piperazin-1-yl]-1-phenyl-propyl ester], for which the values for the ED50 in the experiment on male ICR mouse [1] and with male ICR mouse [2] (ip) were 33.2 mg/kg and 0.34 mg/kg, respectively. Further, the figures for the IC50 at 5-HT2A receptor and on 5-HT1A receptor were 0.11 µM and 0.16 µM, respectively.
For the compound `NC(=O)OC(CCCN1CCN(c2ccccc2)CC1)c1ccccc1` (centres unmarked) [Example 94, Carbamic acid 1-phenyl-4-(4-phenyl-piperazin-1-yl)-butyl ester], the figures for the IC50 at 5-HT2A receptor and on 5-HT1A receptor were 0.514 µM and 0.0898 µM, respectively. For the same compound, the ED50 in the experiment on male ICR mouse [3] turned out to be 2.79 mg/kg; in the experiment with male ICR mouse [2] (ip), 0.25 mg/kg; with male ICR mouse [2] (po), 3.61 mg/kg.
Consider `COc1ccc(N2CCN(CC[C@@H](OC(N)=O)c3ccccc3)CC2)cc1` [Example 102, (R)-carbamic acid 3-[4-(4-methoxy-phenyl)-piperazin-1-yl]-1-phenyl-propyl ester], for which the ED50 came to 4.77 mg/kg in the experiment on male ICR mouse [1] and 3.15 mg/kg in the experiment with male ICR mouse [2] (po). The figures for the IC50 on 5-HT2A receptor and at 5-HT1A receptor were 2.78 µM and 4.31 µM, respectively.
`COc1ccc(N2CCN(CC[C@H](OC(N)=O)c3ccccc3)CC2)cc1` [Example 106, (S)-carbamic acid 3-[4-(4-methoxy-phenyl)-piperazin-1-yl]-1-phenyl-propyl ester]: the ED50 with male ICR mouse [1] is 12.5 mg/kg; with male ICR mouse [2] (ip) it was 1.43 mg/kg.

Values taken from patent US8815852B2, “Carbamoyloxy arylalkan arylpiperazine analgesics” (SK Biopharmaceuticals Co., Ltd., priority 2007, dated 2014).
